How the values were obtained:
[1] = target: T1, mouse OAZ1 (mOAZ1) (Mus musculus, UniProt P54369); experiment: Isothermal titration calorimetry of polyamines binding to mOAZ1; details: for ΔH (enthalpy variation) / Ka (affinity constant): pH 7.5; for ΔH (enthalpy variation): SD did not exceed ±20%; for Ka (affinity constant): SD did not exceed ±25%; for Binding to mOAZ1: under the conditions used; for TΔS (entropy variation): calculated from TΔS = ΔH + RTlnKa; for Kd: read-out: Kd (dissociation constant)
T1 construct: Full-length mOAZ1 protein was successfully produced in E. coli; made in house; host or cells: Escherichia coli Rosetta (DE3)
Experimental: For the precise isothermal titration calorimetry (ITC) experiments only freshly purified samples turned out to be suitable. The thermodynamic parameters of polyamines binding to OAZ1 were measured using a MicroCal iTC200 instrument (GE Healthcare, Chicago, IL, USA) as described elsewhere. Experiments were carried out at 31 °C in buffer containing 25 mM potassium phosphate, pH 7.5; 150 mM KCl; 25% (v/v) glycerol; 1 mM 2-mercaptoethanol; and 1 mM PMSF. Aliquots (2.5 μL) of ligands were injected into a 0.2 mL cell containing the protein solution to achieve a complete binding isotherm. Protein and ligand concentrations were 20 μM and 200 μM, respectively. The heat of dilution was measured by injection of the ligand into the buffer solution or by additional injections of ligand after saturation; the values obtained were subtracted from the heat of reaction to obtain the effective heat of binding. The resulting titration curves were fitted using the MicroCal Origin software, assuming one set of binding sites. Affinity constants (Ka) and enthalpy variations (ΔH) were determined, and the entropy variations (ΔS) were calculated from the equation: TΔS = ΔH + RTlnKa.

[2] = target: T2, recombinant mOAZ1 protein (Mus musculus, UniProt P54369); experiment: Electrophoresis of mOAZ1-Polyamine complex (0.01% SDS in running buffer); type: binding; details: 200 μM polyamine, 30 min, 20 °C, pH 7.5
T2 construct: Full-length mOAZ1 protein was successfully produced in E. coli; made in house; host or cells: Escherichia coli Rosetta (DE3)
Experimental: The recombinant mOAZ1 protein (1 μg/band) was incubated with 200 μM of a polyamine at room temperature for 30 min. Then the sample was quenched with a loading buffer (200 mM Tris-HCl, pH 6.8, 0.01% bromophenol blue, and 40% glycerol) and applied onto 12% polyacrylamide gel lacking SDS. Electrophoresis was carried out in a running buffer with decreased SDS concentration (25 mM Tris base; 250 mM glycine; and 0.01% SDS) at 70 V. The gel was stained with Coomassie R-250.

[3] = tested on: OAZ1 protein; parameters: method as in PMID 11972449; details: HTC cells; cited from earlier work
[4] = calculated as 1/Ka, no binding = not detected, Kd > 50 μM not detectable

T1 sequence (P54369 whole entry): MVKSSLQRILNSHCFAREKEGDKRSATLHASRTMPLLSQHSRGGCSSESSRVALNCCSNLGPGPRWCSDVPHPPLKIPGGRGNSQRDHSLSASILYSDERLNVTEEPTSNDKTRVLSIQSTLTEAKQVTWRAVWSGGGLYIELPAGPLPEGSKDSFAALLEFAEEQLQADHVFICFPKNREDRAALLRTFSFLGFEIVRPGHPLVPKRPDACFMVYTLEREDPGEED
T2 sequence (P54369 whole entry): as above

Structure (SMILES) | Stoichiometry mOAZ1/Polyamine ([1]; ITC, 31 °C, pH 7.5, 150 mM KCl, 25% glycerol, protein 20 μM, ligand 200 μM) | ΔH (enthalpy variation) ([1]; ITC, 31 °C) | Ka (affinity constant) ([1]; ITC, 31 °C) | Binding to mOAZ1 ([1]; ITC) | Kd (dissociation constant) [1, 4] | TΔS (entropy variation) [1] | Kd [1, 4] | Formation of (mOAZ1)2-Polyamine complex / dimerization [2] | Half-life of OAZ1 protein [3]
NCCCCN [Put, putrescine] | No binding ^f | No binding ^f | No binding ^f | did not | No binding ^f | No binding ^f | – | – | –
NCCCNCCCCNCCCN [Spm, spermine] | – | -3.7 kcal/mol | 920000 M⁻¹ | bound to mOAZ1 | – | 4.5 kcal/mol | 1.1 µM | induce dimerization of OAZ1 | did not increase the half-life of OAZ1 protein
CCNCCCCNCCCCNCCCCNCCCCNC/C=C/CNCCCCNCCCCNCCCCNCCCCNCC [SL-11144] | – | – | – | – | – | – | – | – | did not increase the half-life of OAZ1 protein
CCNCCCNCCCNCCCNCC [DENSpm, N^1,N^11-diethylnorspermine] | – | -5.1 kcal/mol | 750000 M⁻¹ | bound to mOAZ1 | – | 3.0 kcal/mol | 1.3 µM | – | –

From paper PMC9104013, “Role of Polyamine-Induced Dimerization of Antizyme in Its Cellular Functions” (International Journal of Molecular Sciences, 2022)
